Source: article PMC8008885 (Journal of Enzyme Inhibition and Medicinal Chemistry, 2021)

Test system: H3K9me3 occupancy in promoter regions
Test: H3K9me3-ChIP sequencing of striatal tissue of YAC128 mice
Format: in vivo, mouse
Experimental: ChIP for H3K9me3 binding to DNA was performed using a CHIP assay kit (Santa Cruz, Dallas, TX) as described previously[21]^,[28]. Striatal tissues from WT, vehicle treated YAC128, and APQ-treated YAC128 mice were crossed-linked with 1% formaldehyde for 20 min at room temperature. Lysates were sonicated for 30 s six times using a Bioruptor (Diagenode Inc., Denville, NJ). After centrifugation, the supernatant was diluted in CHIP dilution buffer and incubated overnight at 4 °C with anti-H3K9me3 antibody. Immune complexes were recovered by the addition of 60 µl of salmon sperm DNA/protein A agarose-50% slurry and incubation at 4 °C for 2 h with rotation. Beads were pelleted and washed with low and high salt buffer followed by LiCl buffer (x3). Immune complexes were eluted by incubation with 500 µl of fresh elution buffer (1% SDS, 0.1 M NaHCO3) and 20 µl of 5 M NaCl. DNA was cleaned by the addition of 500 mM EDTA, 1 M Tris, and proteinase K at 66 °C for 4 h. The DNA solution was extracted with a phenol/chloroform/isoamyl alcohol mixture to remove protein contaminants, followed by precipitation with 100% ethanol. After precipitation, the pellet was washed with 70% ethanol and dissolved in 20 µl DW.
The Model-based Analysis of ChIP-Seq algorithm (MACS; v. 1.4.2) was used to identify regions of H3K9me3 enrichment with the default parameters. The peaks that pass a Poisson p values threshold of 0.1 were used for further analyses[28]^,[42]. In order to obtain reliable regions of enrichment, the regions detected in more than two samples were selected and aligned to define the consensus regions using DiffBind R package (v. 2.4.8)[43]. The reads in the consensus regions were counted and DESeq2 was applied to identify DMRs[44]. The DMRs were defined as p values of ≤.05 and only DMRs in promoter region (≤3 K from transcription start site) were selected.
Among the read peaks, a total of H3K9me3-enriched 71735 sites were commonly detected using MACS in WT, vehicle-treated YAC128, and APQ-treated YAC128 mice (using DiffBind R package). The reads were re-counted in the 71,735 sites (using DESeq2) and the H3K9me3-enriched sites in promoter region (≤3 K), with p values ≤.01 were selected. Then the H3K9me3-enriched sites with 1.5-fold higher in vehicle-treated YAC128 compared to WT and 1.5-fold lower in vehicle-treated YAC128 compared to APQ-treated YAC128 were finally selected.

Q: What does the source list for `C=CCOc1cccc2nc(N3CCCC3)ccc12` [APQ, 5-allyloxy-2-(pyrrolidin-1-yl)quinoline]?
A: number of targets with 1.5-fold decrease of H3K9me3 occupancy (APQ-treated vs vehicle-treated YAC128 mice): 7060; H3K9me3 occupancy in the promoter region (–1 k to –3 kb) (APQ-treated vs vehicle-treated YAC128 mice, pie graph analysis): reduced; Fold(YACEi/YAC) H3K9me3 ChIP occupancy (Gripap1, Promoter (1-2kb), chrX_7787762_7788457, APQ-treated YAC vs YAC mice striatum): -2.38; Fold(YACEi/YAC) (H3K9me3 ChIP peak chr1_71652484_71652752, Apol7d, Promoter (<=1kb)): -3.31; Fold(YACEi/YAC) (H3K9me3 ChIP peak chr1_131908530_131908816, Nucks1, Promoter (1-2kb)): -4.01; Fold(YACEi/YAC) (H3K9me3 ChIP peak chr1_153487828_153488249, Dhx9, Promoter (<=1kb)): -2.43; Fold(YACEi/YAC) (H3K9me3 ChIP peak chr2_5015774_5016013, Mcm10, Promoter (2-3kb)): -3.52; Fold(YACEi/YAC) (H3K9me3 ChIP peak chr3_35666243_35666969, Gm6639, Promoter (<=1kb)): -3.37; Fold(YACEi/YAC) (H3K9me3 ChIP peak chr3_38487666_38488045, Ankrd50, Promoter (2-3kb)): -2.49; Fold(YACEi/YAC) (H3K9me3 ChIP peak chr3_81977204_81977533, Tdo2, Promoter (1-2kb)): -3.71; Fold(YACEi/YAC) (H3K9me3 ChIP peak chr3_92487863_92488097, Sprr1a, Promoter (1-2kb)): -3.63; Fold(YACEi/YAC) (H3K9me3 ChIP peak chr3_101112649_101113010, Ptgfrn, Promoter (2-3kb)): -3.89; Fold(YACEi/YAC) (H3K9me3 ChIP peak chr4_3653408_3653656, 2210414B05Rik, Promoter (2-3kb)): -3.07; Fold(YACEi/YAC) (H3K9me3 ChIP peak chr4_55418287_55418885, Gm12505, Promoter (<=1kb)): -2.83; Fold(YACEi/YAC) (H3K9me3 ChIP peak chr4_73631010_73633171, Gm11236, Promoter (2-3kb)): -3.46; Fold(YACEi/YAC) (H3K9me3 ChIP peak chr4_96141001_96141325, Cyp2j12, Promoter (<=1kb)): -3.49; Fold(YACEi/YAC) (H3K9me3 ChIP peak chr5_147954155_147954429, Mtus2, Promoter (2-3kb)): -3.24; Fold(YACEi/YAC) (H3K9me3 ChIP peak chr6_8194240_8194734, Col28a1, Promoter (1-2kb)): -2.03; Fold(YACEi/YAC) (H3K9me3 ChIP peak chr6_40902902_40903167, Prss58, Promoter (2-3kb)): -3.27; Fold(YACEi/YAC) (H3K9me3 ChIP peak chr6_52209895_52210445, Hoxa6, Promoter (1-2kb)): -2.02; Fold(YACEi/YAC) (H3K9me3 ChIP peak chr6_57158878_57159171, Vmn1r12, Promoter (<=1kb)): -3.18; Fold(YACEi/YAC) (H3K9me3 ChIP peak chr6_82941890_82942092, Sema4f, Promoter (2-3kb)): -3.56; Fold(YACEi/YAC) (H3K9me3 ChIP peak chr6_88462374_88462646, Ruvbl1, Promoter (2-3kb)): -3.04; Fold(YACEi/YAC) (H3K9me3 ChIP peak chr6_116583898_116584203, Olfr215, Promoter (<=1kb)): -2.33; Fold(YACEi/YAC) (H3K9me3 ChIP peak chr7_20869153_20870151, Vmn1r116, Promoter (2-3kb)): -3.02; Fold(YACEi/YAC) (H3K9me3 ChIP peak chr7_28539372_28539811, Sycn, Promoter (1-2kb)): -2.21; Fold(YACEi/YAC) (H3K9me3 ChIP peak chr7_30914737_30915034, Mag, Promoter (<=1kb)): -2.46; Fold(YACEi/YAC) (H3K9me3 ChIP peak chr7_106081077_106081480, Gm8979, Promoter (1-2kb)): -3.34; Fold(YACEi/YAC) (H3K9me3 ChIP peak chr7_108053741_108053948, Olfr479, Promoter (1-2kb)): -2.28; Fold(YACEi/YAC) (H3K9me3 ChIP peak chr7_140154755_140155139, Sprn, Promoter (<=1kb)): -2.42; Fold(YACEi/YAC) (H3K9me3 ChIP peak chr8_67493810_67494076, Nat2, Promoter (<=1kb)): -2.63; Fold(YACEi/YAC) (H3K9me3 ChIP peak chr9_39238856_39239153, Olfr1537, Promoter (<=1kb)): -2.72; Fold(YACEi/YAC) (H3K9me3 ChIP peak chr10_75351156_75351507, Gm5779, Promoter (<=1kb)): -3.41; Fold(YACEi/YAC) (H3K9me3 ChIP peak chr10_78963256_78963630, Olfr1353, Promoter (<=1kb)): -2.79; Fold(YACEi/YAC) (H3K9me3 ChIP peak chr10_85919134_85919418, Prdm4, Promoter (1-2kb)): -2.28; Fold(YACEi/YAC) (H3K9me3 ChIP peak chr10_130212472_130212863, Olfr827, Promoter (1-2kb)): -3.69; Fold(YACEi/YAC) (H3K9me3 ChIP peak chr11_6231887_6232152, Npc1l1, Promoter (1-2kb)): -3.31; Fold(YACEi/YAC) (H3K9me3 ChIP peak chr11_70351943_70352224, Alox15, Promoter (<=1kb)): -2.33; Fold(YACEi/YAC) (H3K9me3 ChIP peak chr14_7570803_7571731, Gm3558, Promoter (2-3kb)): -3.02; Fold(YACEi/YAC) (H3K9me3 ChIP peak chr14_50785599_50785931, Ttc5, Promoter (<=1kb)): -3.3; Fold(YACEi/YAC) (H3K9me3 ChIP peak chr14_51147689_51148262, Rnase1, Promoter (<=1kb)): -2.5; Fold(YACEi/YAC) (H3K9me3 ChIP peak chr14_67860151_67860425, Mir6539, Promoter (<=1kb)): -2.31; Fold(YACEi/YAC) (H3K9me3 ChIP peak chr14_74972279_74972456, Gm4278, Promoter (2-3kb)): -3.57; Fold(YACEi/YAC) (H3K9me3 ChIP peak chr16_17917614_17917958, Gsc2, Promoter (2-3kb)): -3.59; Fold(YACEi/YAC) (H3K9me3 ChIP peak chr17_18913933_18914613, Vmn2r97, Promoter (<=1kb)): -3.35; Fold(YACEi/YAC) (H3K9me3 ChIP peak chr17_33553505_33553673, Myo1f, Promoter (2-3kb)): -3.41; Fold(YACEi/YAC) (H3K9me3 ChIP peak chr17_37114518_37114958, Olfr92, Promoter (2-3kb)): -2.4; Fold(YACEi/YAC) (H3K9me3 ChIP peak chr17_37485182_37485483, H2-M2, Promoter (1-2kb)): -3.71; Fold(YACEi/YAC) (H3K9me3 ChIP peak chr17_47927455_47927829, Foxp4, Promoter (2-3kb)): -2.83; Fold(YACEi/YAC) (H3K9me3 ChIP peak chr19_24902268_24902717, Foxd4, Promoter (<=1kb)): -2.16; Fold(YACEi/YAC) (H3K9me3 ChIP peak chrX_5469564_5470151, Mycs, Promoter (<=1kb)): -2.41; Fold(YACEi/YAC) (H3K9me3 ChIP peak chrX_6399655_6400248, Shroom4, Promoter (<=1kb)): -2.29; Fold(YACEi/YAC) (H3K9me3 ChIP peak chrX_7571434_7571820, Flicr, Promoter (1-2kb)): -4.01; Fold(YACEi/YAC) (H3K9me3 ChIP peak chrX_10118097_10118554, Srpx, Promoter (<=1kb)): -2.46; Fold(YACEi/YAC) (H3K9me3 ChIP peak chrX_10714202_10714657, Mid1ip1, Promoter (2-3kb)): -2.68
